Where two headings read alike, the source gives them in different places.

The values below come from publication PMC6226112 (Clinical and Translational Science, 2018).

Data set [1] in a line: Trial 1 safety and tolerability. As to conditions: for Number of AEs considered related to the drug(s): 73 drug-related of 78 AEs.
The conditions of data set [2]: GZR alone 200 mg once daily, ref historical database, cited from earlier work.
The conditions of data set [3]: steady state; cited from earlier work.
The nature of data set [4]: clinical. Particulars: human, in vivo.
A short description of data set [5]: Trial 2 safety and tolerability.
For data set [6] the following is noted: human, in vivo.
The nature of data set [7]: clinical. As to conditions: both, human, in vivo.
The conditions of data set [8]: both, human, in vivo.

With `O=C1CC[C@@]2(O)[C@H]3Cc4ccc(O)c5c4[C@@]2(CCN3CC2CC2)[C@H]1O5` [NTX, naltrexone], the “Number of AEs considered related to the drug(s)” value in data set [1] is “three”.
Consider `C=C[C@@H]1C[C@]1(NC(=O)[C@@H]1C[C@@H]2CN1C(=O)[C@H](C(C)(C)C)NC(=O)O[C@@H]1C[C@H]1CCCCCc1nc3ccc(OC)cc3nc1O2)C(=O)NS(=O)(=O)C1CC1` [GZR, grazoprevir], for which the “C24, GM” value in data set [2] was 13.9 nM. Besides, in data set [2] (read-out: Cmax, GM), the Cmax is 583 nM. The “Exposure in HCV-infected people compared with healthy people” value in data set [3] is given as approximately 2 fold. For the same compound, in data set [4], the AUC(0-t) was 2.13 µM·h, the Cmax turned out to be 473 nM and the Tmax is 4 h. Besides, the “Tolerability of coadministration with BUP/NAL” value in data set [5] is listed as “generally well tolerated”. In data set [6], the “C24, GM” value is on record as 13.5 nM; the “GMRs for AUC0-24, Cmax, and C24 (range over the three parameters)” value is 0.80–0.97.
For `COC(=O)N[C@H](C(=O)N1CCC[C@H]1c1nc(-c2ccc3c(c2)O[C@@H](c2ccccc2)n2c-3cc3cc(-c4c[nH]c([C@@H]5CCCN5C(=O)[C@@H](NC(=O)OC)C(C)C)n4)ccc32)c[nH]1)C(C)C` [EBR, elbasvir], in data set [7], the AUC(0-inf) came out at 2.55 µM·h and the Tmax came to 3.01 h. In data set [7] (po, 50 mg), this compound displayed an AUC(0-inf) of 2.08 µM·h. Besides, in data set [1], the “Tolerability of coadministration with BUP/NAL” value was “generally well tolerated” and the “Number of AEs considered related to the drug(s)” value came out at 4. Also, the “GMRs for AUC0-∞, Cmax, and C24 (range over the three parameters)” value in data set [8] is listed as 1.13–1.22.
Regarding `C=CCN1CC[C@]23c4c5ccc(O)c4O[C@H]2C(=O)CC[C@@]3(O)[C@H]1C5` [NAL, naloxone], in data set [7], the AUC(0-inf) was 0.416 ng·h/mL, the concentration peaked (Cmax) at 0.139 ng/mL and the Tmax was 0.98 h. In data set [7] (2 mg), this compound came in with an AUC(0-inf) of 0.47 ng·h/mL and a Cmax of 0.165 ng/mL. Further, the Tmax in data set [4] amounted to 1.24 h. Moreover, in data set [6], the “Apparent terminal T½, GM” value came to 5.20 h and the “Cmax/D, GM” value stood at 0.149 ng/mL/mg.

As usually defined, the Cmax is the peak of the concentration-time curve. The term AUC(0-t) denotes exposure summed from dosing to a finite time, without extrapolation to infinity. A low value points to low exposure. By Tmax is commonly meant the time from dosing to the highest level. As usually defined, the AUC(0-inf) is the area under the concentration-time curve extrapolated to infinity. Low readings indicate less exposure, high ones more exposure.
